41 compounds from US20240150377A1, “MODULATORS OF CYSTIC FIBROSIS TRANSMEMBRANE CONDUCTANCE REGULATOR” (VERTEX PHARMACEUTICALS INCORPORATED, priority 2020, published 2024) can be followed below.

Where only a bound is given, the exact number is not on record here.

T1 sequence (P13569 with tags, fused parts or gaps DEL508-508): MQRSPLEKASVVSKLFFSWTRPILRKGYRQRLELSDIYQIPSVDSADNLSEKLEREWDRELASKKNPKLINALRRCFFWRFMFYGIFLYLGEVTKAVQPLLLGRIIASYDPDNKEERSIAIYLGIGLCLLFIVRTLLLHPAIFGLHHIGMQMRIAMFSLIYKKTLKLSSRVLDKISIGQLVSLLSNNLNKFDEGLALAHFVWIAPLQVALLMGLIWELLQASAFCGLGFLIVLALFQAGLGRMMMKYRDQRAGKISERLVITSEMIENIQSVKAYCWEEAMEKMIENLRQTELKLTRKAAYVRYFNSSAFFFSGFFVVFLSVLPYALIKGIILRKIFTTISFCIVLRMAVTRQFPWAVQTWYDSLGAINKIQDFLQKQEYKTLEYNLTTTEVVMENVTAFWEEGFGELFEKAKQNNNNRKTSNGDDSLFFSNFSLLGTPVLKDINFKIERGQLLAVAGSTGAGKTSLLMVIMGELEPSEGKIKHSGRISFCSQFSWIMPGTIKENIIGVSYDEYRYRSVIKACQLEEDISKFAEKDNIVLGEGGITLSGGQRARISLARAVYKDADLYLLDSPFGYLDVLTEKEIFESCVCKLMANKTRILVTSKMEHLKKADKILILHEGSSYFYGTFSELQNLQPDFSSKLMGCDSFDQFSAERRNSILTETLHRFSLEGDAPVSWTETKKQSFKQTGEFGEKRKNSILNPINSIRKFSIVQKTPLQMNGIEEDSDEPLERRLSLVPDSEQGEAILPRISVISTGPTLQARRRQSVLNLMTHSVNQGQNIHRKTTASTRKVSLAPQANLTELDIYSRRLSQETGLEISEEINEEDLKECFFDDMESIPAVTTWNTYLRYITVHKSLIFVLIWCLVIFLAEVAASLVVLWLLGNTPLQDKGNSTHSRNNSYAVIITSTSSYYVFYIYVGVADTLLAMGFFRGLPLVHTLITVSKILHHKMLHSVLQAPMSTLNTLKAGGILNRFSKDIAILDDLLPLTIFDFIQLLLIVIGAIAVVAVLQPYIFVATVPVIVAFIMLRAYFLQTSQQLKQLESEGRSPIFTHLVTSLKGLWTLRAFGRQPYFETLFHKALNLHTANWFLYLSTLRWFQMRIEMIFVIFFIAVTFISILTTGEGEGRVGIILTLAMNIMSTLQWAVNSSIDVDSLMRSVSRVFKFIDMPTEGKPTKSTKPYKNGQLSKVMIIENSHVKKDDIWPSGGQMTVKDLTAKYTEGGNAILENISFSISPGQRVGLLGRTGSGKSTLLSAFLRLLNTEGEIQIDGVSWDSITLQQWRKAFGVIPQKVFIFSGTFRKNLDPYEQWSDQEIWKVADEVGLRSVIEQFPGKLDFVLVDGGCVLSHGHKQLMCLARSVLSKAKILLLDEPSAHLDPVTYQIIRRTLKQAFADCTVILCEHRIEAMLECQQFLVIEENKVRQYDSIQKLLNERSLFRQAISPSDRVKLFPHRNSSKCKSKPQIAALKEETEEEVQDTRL

The first assay addresses T1, CFTR (Homo sapiens, UniProt P13569, DEL508-508).
T1 construct: endogenous in cells; host or cells: primary human bronchial epithelial cells from CF subjects (F508del/MF-HBE), differentiated at air-liquid interface
Nature of the assay: HBE2 assay: Ussing chamber assay of CFTR-mediated short-circuit currents. The class given is cell-based. The conditions noted are these: 3 μM corrector; F508del/MF-HBE cells; with 44 nM potentiator, 18-24 hours, 20% human serum. In outline:
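Corrector activity read as CFTR-dependent ISC (μA/cm^2): peak forskolin current minus post-inhibitor steady state. Measured at 37 °C, voltage clamp at 0 mV, on F508del/MF-HBE epithelia grown >14 days air-liquid interface in Ussing chambers.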
As for `COC[C@@H]1CCN1c1cncc(CN2C(=O)c3cccc(c3)S(=O)(=O)Nc3nc(cc(-c4c(C)cccc4C)n3)OC[C@H]2CCC(C)(C)C)n1` [Compound 1730], the “HBE2 Activity at 3 μM (%)” value was “+++ (+++ is >60+)”.

Consider `Cc1cccc(C)c1-c1cc2nc(n1)NS(=O)(=O)c1cccc(c1)C(=O)N(Cc1cncc(N(C)C3CCC3)n1)[C@H](c1ccccc1)CO2` [Compound 1731], for which the “HBE2 Activity at 3 μM (%)” value is reported as “+++ (+++ is >60+)”. For the compound `Cc1cccc(C)c1-c1cc2nc(n1)NS(=O)(=O)c1cccc(c1)C(=O)N(Cc1cncc(N(C)C3CCC3)n1)[C@H](C(C)(C)C)CO2` [Compound 1732], the “HBE2 Activity at 3 μM (%)” value was “+++ (+++ is >60+)”. In the case of `Cc1cccc(C)c1-c1cc2nc(n1)NS(=O)(=O)c1cccc(c1)C(=O)N(Cc1cncc(N(C)C3CCC3)n1)[C@H](C1CCCCC1)CO2` [Compound 1733], the “HBE2 Activity at 3 μM (%)” value is reported as “+++ (+++ is >60+)”.

As to `Cc1cccc(C)c1-c1cc2nc(n1)NS(=O)(=O)c1cccc(c1)C(=O)N(Cc1nccc(N(C)C(C)C)n1)[C@H](CCC(C)C)CO2` [Compound 1734], the “HBE2 Activity at 3 μM (%)” value was “+++ (+++ is >60+)”. `Cc1cccc(C)c1-c1cc2nc(n1)NS(=O)(=O)c1cccc(c1)C(=O)N(Cc1cncc(N(C)CC(C)(C)C)n1)[C@H](CCC(C)(C)C)CO2` [Compound 1739]: the “HBE2 Activity at 3 μM (%)” value was “+++ (+++ is >60+)”. In the case of `Cc1cccc(C)c1-c1cc2nc(n1)NS(=O)(=O)c1cccc(c1)C(=O)N(Cc1cncc(N(C)C3CCC3)n1)[C@@H]1CN(CCC(C)(C)C)C[C@H]1O2` [Compound 1741], the “HBE2 Activity at 3 μM (%)” value is “++ (++ is 30-60%)”.

Consider `Cc1cccc(C)c1-c1cc2nc(n1)NS(=O)(=O)c1cccc(c1)C(=O)N(Cc1cncc(N(C)C3CCC3)n1)[C@@H]1CN(C3CC4(CC4)C3)C[C@H]1O2` [Compound 1742], for which the “HBE2 Activity at 3 μM (%)” value is recorded as “+++ (+++ is >60+)”. Turning to `Cc1cccc(C)c1-c1cc2nc(n1)NS(=O)(=O)c1cccc(c1)C(=O)N(Cc1cncc(N3CCC[C@H]3C)n1)[C@H](CC1(C)CCC1)CO2` [Compound 1743], the “HBE2 Activity at 3 μM (%)” value is on record as “+++ (+++ is >60+)”.

As to `Cc1cccc(C)c1-c1cc2nc(n1)NS(=O)(=O)c1cccc(c1)C(=O)N(Cc1cncc(N3CCCC[C@H]3C)n1)[C@H](CC1(C)CCC1)CO2` [Compound 1744], the “HBE2 Activity at 3 μM (%)” value is reported as “+++ (+++ is >60+)”. As to `Cc1cccc(C)c1-c1cc2nc(n1)NS(=O)(=O)c1cccc(c1)C(=O)N(Cc1cncc(N(C)C(C)C)n1)[C@H](CC1(C)CCC1)CO2` [Compound 1745], the “HBE2 Activity at 3 μM (%)” value is on record as “+++ (+++ is >60+)”. As to `Cc1cccc(C)c1-c1cc2nc(n1)NS(=O)(=O)c1cccc(c1)C(=O)N(Cc1cncc(N3CCC[C@@H]4CC[C@@H]43)n1)[C@H](CCC(C)C)CO2` [Compound 1747], the “HBE2 Activity at 3 μM (%)” value is “+++ (+++ is >60+)”. `Cc1cccc(C)c1-c1cc2nc(n1)NS(=O)(=O)c1cccc(c1)C(=O)N(Cc1cncc(N3CCCC[C@H]3C)n1)[C@H](CCC(C)C)CO2` [Compound 1749]: the “HBE2 Activity at 3 μM (%)” value is recorded as “+++ (+++ is >60+)”.

For `Cc1cccc(C)c1-c1cc2nc(n1)NS(=O)(=O)c1cccc(c1)C(=O)N(Cc1cncc(N3CC(C)(C)[C@H]3C(C)C)n1)[C@H](CC(C)(C)C)CO2` [Compound 1750], the “HBE2 Activity at 3 μM (%)” value was “+++ (+++ is >60+)”. With `Cc1cccc(C)c1-c1cc2nc(n1)NS(=O)(=O)c1cccc(c1)C(=O)N(Cc1cncc(N3CC4(CCC4)[C@H]3C(C)C)n1)[C@H](CC(C)(C)C)CO2` [Compound 1752], the “HBE2 Activity at 3 μM (%)” value is recorded as “+++ (+++ is >60+)”. As for `CCC(CC)N(C)c1cncc(CN2C(=O)c3cccc(c3)S(=O)(=O)Nc3nc(cc(-c4c(C)cccc4C)n3)OC[C@H]2CC(C)(C)C)n1` [Compound 1754], the “HBE2 Activity at 3 μM (%)” value is reported as “+++ (+++ is >60+)”. `Cc1cccc(C)c1-c1cc2nc(n1)NS(=O)(=O)c1cccc(c1)C(=O)N(Cc1cnc3ccn(CC(C)C)c3n1)[C@H](CC(C)(C)C)CO2` [Compound 1755]: the “HBE2 Activity at 3 μM (%)” value is reported as “+++ (+++ is >60+)”.

As to `Cc1cccc(C)c1-c1cc2nc(n1)NS(=O)(=O)c1cccc(c1)C(=O)N(Cc1cnc3cc(C(C)C)n(C)c3n1)[C@H](CC(C)(C)C)CO2` [Compound 1756], the “HBE2 Activity at 3 μM (%)” value is “+++ (+++ is >60+)”. For `Cc1cccc(C)c1-c1cc2nc(n1)NS(=O)(=O)c1cccc(c1)C(=O)N(Cc1cncc(N(C)CC3(C)CC3)n1)[C@H](CC(C)(C)C)CO2` [Compound 1757], the “HBE2 Activity at 3 μM (%)” value was “+++ (+++ is >60+)”. On the same count and under the same terms, to `COC1(CN(C)c2cncc(CN3C(=O)c4cccc(c4)S(=O)(=O)Nc4nc(cc(-c5c(C)cccc5C)n4)OC[C@H]3CC(C)(C)C)n2)CCC1` [Compound 1758] belongs “+++ (+++ is >60+)”; to `Cc1cccc(C)c1-c1cc2nc(n1)NS(=O)(=O)c1cccc(c1)C(=O)N(Cc1cncc(N(C)CC(C)(C)F)n1)[C@H](CC(C)(C)C)CO2` [Compound 1759], “+++ (+++ is >60+)”. On the same count and under the same terms, for `Cc1cccc(C)c1-c1cc2nc(n1)NS(=O)(=O)c1cccc(c1)C(=O)N(Cc1cncc(N3CCO[C@@H](C)[C@H]3C)n1)[C@H](CC(C)(C)C)CO2` [Compound 1761] the value was “+++ (+++ is >60+)”; for `Cc1cccc(C)c1-c1cc2nc(n1)NS(=O)(=O)c1cccc(c1)C(=O)N(Cc1cccc(N(C)C(C)C)n1)[C@H](CC1(C)CCC1)CO2` [Compound 1762], “+++ (+++ is >60+)”; for `Cc1cccc(C)c1-c1cc2nc(n1)NS(=O)(=O)c1cccc(c1)C(=O)N(Cc1cncc(N(C)CC(C)C)n1)[C@H](CCC(C)C)CO2` [Compound 1763], “+++ (+++ is >60+)”. `CCN(c1cncc(CN2C(=O)c3cccc(c3)S(=O)(=O)Nc3nc(cc(-c4c(C)cccc4C)n3)OC[C@H]2CCC(C)C)n1)C1CCC1` [Compound 1764]: the “HBE2 Activity at 3 μM (%)” value is listed as “+++ (+++ is >60+)”. The same measure, in the same setting: to `Cc1cccc(C)c1-c1cc2nc(n1)NS(=O)(=O)c1cccc(c1)C(=O)N(Cc1cncc(N(C)C3CCC3)n1)[C@@H]1CCN(CCC(C)(C)C)C[C@H]1O2` [Compound 1766] belongs “+++ (+++ is >60+)”. On to `Cc1cccc(C)c1-c1cc2nc(n1)NS(=O)(=O)c1cccc(c1)C(=O)N(Cc1cncc(N(C)C3CCC3)n1)[C@@H]1CCN(C3CC4(CC4)C3)C[C@H]1O2` [Compound 1767], for which the “HBE2 Activity at 3 μM (%)” value was “+++ (+++ is >60+)”.

Regarding `Cc1cccc(C)c1-c1cc2nc(n1)NS(=O)(=O)c1cccc(c1)C(=O)N(Cc1cncc(N(C)C3CCC3)n1)[C@@H]1CCN(C3CC4(CCCC4)C3)C[C@H]1O2` [Compound 1768], the “HBE2 Activity at 3 μM (%)” value was “+++ (+++ is >60+)”.

`Cc1cccc(C)c1-c1cc2nc(n1)NS(=O)(=O)c1cccc(c1)C(=O)N(Cc1cncc(N3CC(F)(F)[C@H]3C)n1)[C@H](CC(C)(C)C)CO2` [Compound 1769]: the “HBE2 Activity at 3 μM (%)” value is “+++ (+++ is >60+)”.

With `Cc1cccc(C)c1-c1cc2nc(n1)NS(=O)(=O)c1cccc(c1)C(=O)N(Cc1cncc(N(C)C3CCC3)n1)[C@H](CC(C)C)CCO2` [Compound 1770], the “HBE2 Activity at 3 μM (%)” value is listed as “+++ (+++ is >60+)”. As to `Cc1cccc(C)c1-c1cc2nc(n1)NS(=O)(=O)c1cccc(c1)C(=O)N(Cc1cncc(N(C)C(C)C)n1)[C@H](CCC(C)C)CO2` [Compound 1771], the “HBE2 Activity at 3 μM (%)” value is on record as “+++ (+++ is >60+)”. On the same count and under the same terms, to `Cc1cccc(C)c1-c1cc2nc(n1)NS(=O)(=O)c1cccc(c1)C(=O)N(Cc1cncc(N(C)CC(C)C)n1)[C@H](CC1(C)CCC1)CO2` [Compound 1774] belongs “+++ (+++ is >60+)”; to `Cc1cccc(C)c1-c1cc2nc(n1)NS(=O)(=O)c1cccc(c1)C(=O)N(Cc1cncc(N3CCC[C@H]3C(C)C)n1)[C@H](CC1(C)CCC1)CO2` [Compound 1775], “+++ (+++ is >60+)”; to `Cc1cccc(C)c1-c1cc2nc(n1)NS(=O)(=O)c1cccc(c1)C(=O)N(Cc1cccc(N3CCC[C@H]3C(C)C)n1)[C@H](CC1(C)CCC1)CO2` [Compound 1776], “+++ (+++ is >60+)”.

As to `Cc1cccc(C)c1-c1cc2nc(n1)NS(=O)(=O)c1cccc(c1)C(=O)N(Cc1cccc(N3CCC[C@H]3C)n1)[C@H](CC1(C)CCC1)CO2` [Compound 1777], the “HBE2 Activity at 3 μM (%)” value is on record as “+++ (+++ is >60+)”. As to `Cc1cccc(C)c1-c1cc2nc(n1)NS(=O)(=O)c1cccc(c1)C(=O)N(Cc1cncc(N3CC[C@H]3C)n1)[C@H](CC1CC1)CO2` [Compound 1778], the “HBE2 Activity at 3 μM (%)” value was “+++ (+++ is >60+)”. On the same count and under the same terms, to `CCC(CC)[C@@H]1COc2cc(-c3c(C)cccc3C)nc(n2)NS(=O)(=O)c2cccc(c2)C(=O)N1Cc1cncc(N(C)C2CCC2)n1` [Compound 1779] belongs “+++ (+++ is >60+)”. On to `CCN(CC1CC1)c1cncc(CN2C(=O)c3cccc(c3)S(=O)(=O)Nc3nc(cc(-c4c(C)cccc4C)n3)OC[C@H]2CC(C)(C)C)n1` [Compound 1780], for which the “HBE2 Activity at 3 μM (%)” value is given as “+++ (+++ is >60+)”.

Take `Cc1cccc(C)c1-c1cc2nc(n1)NS(=O)(=O)c1cccc(c1)C(=O)N(Cc1cncc(N3CCC[C@@H](C)[C@H]3C)n1)[C@H](CC(C)(C)C)CO2` [Compound 1783]: the “HBE2 Activity at 3 μM (%)” value is listed as “+++ (+++ is >60+)”.

In the case of `Cc1cccc(C)c1-c1cc2nc(n1)NS(=O)(=O)c1cccc(c1)C(=O)N(Cc1cncc(N(C)C3CC4CCC43)n1)[C@H](CC(C)(C)C)CO2` (stereo partly drawn) [Compound 1784], the “HBE2 Activity at 3 μM (%)” value is “+++ (+++ is >60+)”. With `Cc1cccc(C)c1-c1cc2nc(n1)NS(=O)(=O)c1cccc(c1)C(=O)N(Cc1cncc(N(C)C3CCC3C)n1)[C@H](CC(C)(C)C)CO2` (stereo partly drawn) [Compound 1785], the “HBE2 Activity at 3 μM (%)” value is “+++ (+++ is >60+)”.

Staying with this assay, now noted: F508del/MF-HBE cells; corrector at a range of concentrations with 44 nM potentiator, 18-24 hours, 20% human serum.
Broadly, the EC50 is the concentration needed to bring the measured effect to its halfway point. For `COC[C@@H]1CCN1c1cncc(CN2C(=O)c3cccc(c3)S(=O)(=O)Nc3nc(cc(-c4c(C)cccc4C)n3)OC[C@H]2CCC(C)(C)C)n1` [Compound 1730], the EC50 was less than 1 µM. Consider `Cc1cccc(C)c1-c1cc2nc(n1)NS(=O)(=O)c1cccc(c1)C(=O)N(Cc1cncc(N(C)C3CCC3)n1)[C@H](C1CCCCC1)CO2` [Compound 1733], for which the EC50 is less than 1 µM.

The same assay, now with this note: F508del/MF-HBE cells; with 44 nM potentiator; 18-24 hours; 20% human serum; read-out: HBE2 Max activity (%).
Regarding `COC[C@@H]1CCN1c1cncc(CN2C(=O)c3cccc(c3)S(=O)(=O)Nc3nc(cc(-c4c(C)cccc4C)n3)OC[C@H]2CCC(C)(C)C)n1` [Compound 1730], the Emax was greater than 60%. For the compound `Cc1cccc(C)c1-c1cc2nc(n1)NS(=O)(=O)c1cccc(c1)C(=O)N(Cc1cncc(N(C)C3CCC3)n1)[C@H](C1CCCCC1)CO2` [Compound 1733], the Emax is greater than 60%.
